According to patent US7648989B2, “Indolylmaleimide derivatives as PKC inhibitors” (Novartis AG, priority 2004, dated 2010):

Tests used:
[1] = target: T1, Human recombinant PKCβ1 (Homo sapiens, UniProt P05771); test: Protein Kinase Cβ1 assay; format: biochemical; settings: selectivity ratio relative to PKCα
T1 construct: purchased Oxford Biomedical Research
Method: (§1) The compounds of the invention are tested for their activity on different PKC isoforms according to the following method. Assay is performed in a white with clear bottom 384-well microtiterplate with non-binding surface. The reaction mixture (25 μl) contains 1.5 μM of a tridecapeptide acceptor substrate that mimics the pseudo substrate sequence of PKC α with the Ala→Ser replacement, 10 μM ^33P-ATP, 10 mM Mg(NO3)2, 0.2 mM CaCl2, PKC at a protein concentration varying from 25 to 400 ng/ml (depending on the isotype used), lipid vesicles (containing 30 mol % phosphatidylserine, 5 mol % DAG and 65 mol % phosphatidylcholine) at a final lipid concentration of 0.5 mM, in 20 mM Tris-HCl buffer pH 7.4+0.1% BSA. Incubation is performed for 60 min at room temperature.
Human recombinant PKCβ1 is obtained from Oxford Biomedical Research and is used under the assay conditions as described under Section A.1 above.

[2] = target: T2, Human recombinant PKCδ (Homo sapiens, UniProt Q05655); test: Protein Kinase Cδ assay; format: biochemical; settings: selectivity ratio relative to PKCα
T2 construct: purchased Oxford Biomedical Research
Method: as §1
Human recombinant PKCδ is obtained from Oxford Biomedical Research and is used under the assay conditions as described under Section A.1 above.

[3] = target: T3, Human recombinant PKCε (Homo sapiens, UniProt Q02156); test: Protein Kinase Cε assay; format: biochemical; settings: selectivity ratio relative to PKCα
T3 construct: purchased Oxford Biomedical Research
T3 sequence (Q02156 1-737): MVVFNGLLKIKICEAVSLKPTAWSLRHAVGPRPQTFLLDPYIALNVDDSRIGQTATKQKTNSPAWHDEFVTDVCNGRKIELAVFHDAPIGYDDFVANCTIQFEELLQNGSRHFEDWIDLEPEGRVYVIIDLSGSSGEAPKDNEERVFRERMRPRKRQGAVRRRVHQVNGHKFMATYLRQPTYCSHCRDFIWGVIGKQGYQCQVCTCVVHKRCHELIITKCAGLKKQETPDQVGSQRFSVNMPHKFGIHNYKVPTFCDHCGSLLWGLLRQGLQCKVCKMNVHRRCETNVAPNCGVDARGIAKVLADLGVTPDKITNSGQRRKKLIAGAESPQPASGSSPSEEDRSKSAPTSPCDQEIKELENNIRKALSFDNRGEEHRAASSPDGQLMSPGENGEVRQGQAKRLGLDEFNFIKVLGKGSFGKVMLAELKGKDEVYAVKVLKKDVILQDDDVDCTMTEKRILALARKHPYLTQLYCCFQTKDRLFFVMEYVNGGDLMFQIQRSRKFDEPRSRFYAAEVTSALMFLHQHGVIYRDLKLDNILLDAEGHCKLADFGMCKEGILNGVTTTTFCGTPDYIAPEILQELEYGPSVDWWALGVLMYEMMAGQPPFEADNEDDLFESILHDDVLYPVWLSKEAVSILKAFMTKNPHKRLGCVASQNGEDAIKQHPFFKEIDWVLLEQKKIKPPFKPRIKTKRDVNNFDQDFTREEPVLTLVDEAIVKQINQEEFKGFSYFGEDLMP
Method: as §1
Human recombinant PKCε is obtained from Oxford Biomedical Research and is used under the assay conditions as described under Section A.1 above.

[4] = target: T4, Human recombinant PKCη (Homo sapiens, UniProt P24723); test: Protein Kinase Cη assay; format: biochemical; settings: selectivity ratio relative to PKCα
T4 construct: purchased PanVera
Method: as §1
Human recombinant PKCη is obtained from PanVera and is used under the assay conditions as described under Section A.1 above.

[5] = target: Human recombinant PKCθ (Homo sapiens, UniProt Q04759); test: Protein Kinase Cθ assay; format: biochemical; settings: selectivity ratio relative to PKCα
Method: as §1
Human recombinant PKCθ is used under the assay conditions as described above.

[6] = test system: spleen cells from CBA and BALB/c mice (MLR); bone marrow cells from CBA mice (BM); test: Allogeneic Mixed Lymphocyte Reaction (MLR) assay compared with Bone Marrow Proliferative (BM) assay; format: cell-based; settings: mouse MLR and mouse bone marrow proliferation, 3H-thymidine incorporation
Method: Bone marrow cells from CBA mice (2.5×10^4 cells per well in flat bottom tissue culture microtiter plates) are incubated in 100 μl RPMI medium containing 10% FCS, 100 U/ml penicillin, 100 μg/ml streptomycin (Gibco BRL, Basel, Switzerland), 50 μM 2-mercaptoethanol (Fluka, Buchs, Switzerland), WEHI-3 conditioned medium (7.5% v/v) and L929 conditioned medium (3% v/v) as a source of growth factors and serially diluted compounds. Seven three-fold dilution steps in duplicates per test compound are performed. After four days of incubation 1 μCi ^3H-thymidine is added. Cells are harvested after an additional five-hour incubation period, and incorporated ^3H-thymidine is determined according to standard procedures. Conditioned media are prepared as follows. WEHI-3 cells (ATCC TIB68) and L929 cells (ATCC CCL 1) are grown in RPMI medium until confluence for 4 days and one week, respectively. […]
Briefly, spleen cells from CBA and BALB/c mice (1.6×10^5 cells from each strain per well in flat bottom tissue culture microtiter plates, 3.2×10^5 in total) are incubated in RPMI medium containing 10% FCS, 100 U/ml penicillin, 100 μg/ml streptomycin (Gibco BRL, Basel, Switzerland), 50 μM 2-mercaptoethanol (Fluka, Buchs, Switzerland) and serially diluted compounds. […] Cells are harvested after an additional five-hour incubation period, and incorporated ^3H-thymidine is determined according to standard procedures. […]

Sequence of Human recombinant PKCθ (Q04759 whole entry): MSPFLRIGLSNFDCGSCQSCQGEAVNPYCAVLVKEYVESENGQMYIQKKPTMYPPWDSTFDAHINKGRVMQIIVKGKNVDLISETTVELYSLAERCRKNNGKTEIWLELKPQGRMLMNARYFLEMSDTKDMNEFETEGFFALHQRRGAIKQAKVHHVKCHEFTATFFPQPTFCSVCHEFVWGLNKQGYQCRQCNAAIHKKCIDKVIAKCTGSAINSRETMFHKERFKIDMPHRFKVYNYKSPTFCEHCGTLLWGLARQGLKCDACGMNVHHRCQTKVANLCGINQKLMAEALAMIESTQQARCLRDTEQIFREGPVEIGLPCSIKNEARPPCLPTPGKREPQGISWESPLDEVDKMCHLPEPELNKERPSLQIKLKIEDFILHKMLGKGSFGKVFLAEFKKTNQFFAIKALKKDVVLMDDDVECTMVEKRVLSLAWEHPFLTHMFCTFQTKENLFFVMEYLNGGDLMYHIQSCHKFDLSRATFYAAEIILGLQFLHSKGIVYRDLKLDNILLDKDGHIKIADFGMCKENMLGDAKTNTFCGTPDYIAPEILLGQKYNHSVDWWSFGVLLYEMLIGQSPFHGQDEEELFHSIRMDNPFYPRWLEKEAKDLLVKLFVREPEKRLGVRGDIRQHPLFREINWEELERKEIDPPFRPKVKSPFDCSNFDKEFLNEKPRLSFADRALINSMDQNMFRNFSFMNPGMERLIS
T4 sequence (P24723 whole entry): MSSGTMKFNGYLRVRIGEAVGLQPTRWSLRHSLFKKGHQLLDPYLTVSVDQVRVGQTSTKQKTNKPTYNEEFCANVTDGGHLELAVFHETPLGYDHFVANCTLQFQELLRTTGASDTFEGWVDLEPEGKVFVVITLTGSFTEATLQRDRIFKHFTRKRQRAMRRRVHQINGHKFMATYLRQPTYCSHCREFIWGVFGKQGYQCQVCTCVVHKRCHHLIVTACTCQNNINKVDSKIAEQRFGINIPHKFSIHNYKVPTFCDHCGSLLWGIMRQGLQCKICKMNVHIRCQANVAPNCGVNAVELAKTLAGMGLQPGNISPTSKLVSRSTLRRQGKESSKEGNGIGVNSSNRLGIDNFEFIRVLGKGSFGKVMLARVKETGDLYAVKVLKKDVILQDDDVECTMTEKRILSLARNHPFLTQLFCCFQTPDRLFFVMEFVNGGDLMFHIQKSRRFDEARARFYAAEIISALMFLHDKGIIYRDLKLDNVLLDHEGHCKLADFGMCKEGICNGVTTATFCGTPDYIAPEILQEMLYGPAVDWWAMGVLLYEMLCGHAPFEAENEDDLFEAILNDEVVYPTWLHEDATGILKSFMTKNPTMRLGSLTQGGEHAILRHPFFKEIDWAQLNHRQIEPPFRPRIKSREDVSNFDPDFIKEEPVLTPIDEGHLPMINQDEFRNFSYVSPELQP
T1 sequence (P05771 whole entry): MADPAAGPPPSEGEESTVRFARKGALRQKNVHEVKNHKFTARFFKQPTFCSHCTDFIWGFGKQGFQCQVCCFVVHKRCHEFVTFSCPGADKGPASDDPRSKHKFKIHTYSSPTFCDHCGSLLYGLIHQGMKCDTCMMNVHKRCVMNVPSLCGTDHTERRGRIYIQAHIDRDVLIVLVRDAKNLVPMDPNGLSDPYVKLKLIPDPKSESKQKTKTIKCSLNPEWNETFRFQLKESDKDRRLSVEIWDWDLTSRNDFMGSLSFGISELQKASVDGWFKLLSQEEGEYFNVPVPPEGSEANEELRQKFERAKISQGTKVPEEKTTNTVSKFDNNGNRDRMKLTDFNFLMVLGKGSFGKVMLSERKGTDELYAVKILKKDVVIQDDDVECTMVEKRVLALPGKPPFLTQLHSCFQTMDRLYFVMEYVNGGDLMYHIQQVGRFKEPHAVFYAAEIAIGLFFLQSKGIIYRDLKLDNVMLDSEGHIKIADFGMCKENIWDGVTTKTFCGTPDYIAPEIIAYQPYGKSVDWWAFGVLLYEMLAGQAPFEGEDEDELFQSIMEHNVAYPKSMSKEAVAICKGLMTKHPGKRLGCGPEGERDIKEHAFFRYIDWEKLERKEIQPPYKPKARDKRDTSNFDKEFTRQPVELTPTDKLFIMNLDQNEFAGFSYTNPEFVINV
T2 sequence (Q05655 whole entry): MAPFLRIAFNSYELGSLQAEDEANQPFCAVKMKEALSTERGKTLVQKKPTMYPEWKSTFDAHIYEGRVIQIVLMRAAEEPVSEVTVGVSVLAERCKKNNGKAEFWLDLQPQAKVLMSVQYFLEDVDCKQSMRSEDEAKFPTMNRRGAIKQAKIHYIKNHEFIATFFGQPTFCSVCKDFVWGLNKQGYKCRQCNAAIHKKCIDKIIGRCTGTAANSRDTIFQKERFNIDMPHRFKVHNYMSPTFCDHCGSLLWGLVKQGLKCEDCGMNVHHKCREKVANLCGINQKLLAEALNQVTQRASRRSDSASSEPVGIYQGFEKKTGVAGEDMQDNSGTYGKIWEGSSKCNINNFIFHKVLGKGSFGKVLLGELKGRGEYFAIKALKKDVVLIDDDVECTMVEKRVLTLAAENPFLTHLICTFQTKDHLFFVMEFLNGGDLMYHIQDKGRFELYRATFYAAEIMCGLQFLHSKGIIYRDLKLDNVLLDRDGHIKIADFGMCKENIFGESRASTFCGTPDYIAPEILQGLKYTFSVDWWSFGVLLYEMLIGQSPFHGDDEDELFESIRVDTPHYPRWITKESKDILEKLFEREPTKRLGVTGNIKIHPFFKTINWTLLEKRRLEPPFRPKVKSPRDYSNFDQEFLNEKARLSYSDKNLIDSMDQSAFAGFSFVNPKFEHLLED

Row | SMILES | β/α: ratio of the IC50 value for PKC β to the IC50 value for PKCα [1] | δ/α: ratio of the IC50 value for PKC δ to the IC50 value for PKCα [2] | ε/α: ratio of the IC50 value for PKC ε to the IC50 value for PKCα [3] | η/α: ratio of the IC50 value for PKC η to the IC50 value for PKCα [4] | θ/α: ratio of the IC50 value for PKC θ to the IC50 value for PKCα [5] | MLR/BM: ratio of the IC50 value as determined by the MLR assay to the IC50 value as determined by the BM assay [6]
1 | CN(C)Cc1ccc2ccc(Cl)c(C3=C(c4cn(C)c5ccccc45)C(=O)NC3=O)c2c1 [Example 1, 3-(2-Chloro-7-dimethylaminomethyl-naphthalen-1-yl)-4-(1-methyl-1H-indol-3-yl)-pyrrole-2,5-dione] | 1.2 | 66.4 | 122.6 | 140.2 | 90.8 | 21.6
2 | Cn1c2ccccc2c2c3c(c4c5ccccc5n(CCC#N)c4c21)CNC3=O [Example 47, Gö 6976] | 5.3 | 120.5 | 45.8 | 118.7 | 222.3 | 2.1
